# Laboratory results reported in patent US8835397B2, “Macrocyclic lactone tablet formulation” (Bayer New Zealand Ltd., priority 2006, dated 2014).
# Experiment: Abamectin blood plasma levels after raw active (no excipients) in gelatine capsule, sheep (Example 2)
# Type: in vivo
# Settings: oral gelatine capsule, raw active without excipients, 0.2 mg/kg
# Protocol: Given the results in Example 1, a further trial was completed to determine the influence of the formulation on the degree of absorption of abamectin. This was completed by ascertaining baseline levels of abamectin drug bioavailability when animals are dosed with raw active (no excipients).
# Five sheep weighing 59.0 kg to 63.5 kg (mean=61.2 kg) were all dosed with one abamectin treatment, which contained a dose sufficient for a 60 kg animal at the standard dose rate of 0.2 mg/kg for abamectin. The abamectin dose was contained within a gelatine capsule.
# Prior to administration of the invention or Reference formulation, all animals were dosed to their individual liveweight with SCANDA™ (Batch 52888, expiry April 2006) at least 14 days prior to each treatment session, and tested free of strongylid nematodes (via faecal egg count) prior to the commencement of each treatment session.
# Gelatine capsules containing an abamectin drug (one capsule per sheep) were used. All animals were dosed orally with the assistance of a “pill popper”, which was followed immediately by approx 60 ml of tap water. The capsules were dark green in colour, to prevent the light sensitive abamectin from being prematurely exposed to light.
# All animals were blood sampled seven times. […]
substance,measurement,value
abamectin,Abamectin blood plasma peak level,just above the detection threshold
